Data on five molecules can be found in patent publication US9566349B2, “Intestinal peptide targeting ligands” (Rutgers, The State University of New Jersey, priority 2010, dated 2017).

The conditions of data set [1]: cited from earlier work.
A short description of data set [2]: Solubility and aggregation of peptide compared with SEQ ID NO. 1. The following applies: Met and Cys replaced by norleucine and serine. The data set is classed as physicochemical. An excerpt: Another example of such an amino acid sequence is TKWPVDN/eSPNVS (SEQ ID. NO. 6). In comparison with SEQ ID. NO. 1, replacement of the oxidation-prone amino acids (methionine and cysteine) with their biosteric counterparts (norleucine and serine respectively) in SEQ ID. NO. […] The peptide ligands of the instant invention also include variants or homologues of SEQ ID NO: 6, which may be at least 75% identical to SEQ ID NO: 6 or which may contain conservative substitutions of corresponding amino acid residues.

Data set [3] concerns Caco-2 intestinal epithelial monolayer. The data set is described as follows: Transport of FITC-labeled peptide across Caco-2 intestinal epithelial monolayer. It counts as cell-based, human. The following applies: Caco-2 monolayers, n=3, p<0.05. An excerpt:
FIG. 2. Illustrates that peptide-labeled #12 (SEQ ID NO. 2) and its sequence-scrambled peptide FITC-12C1 were transported across Caco-2 intestinal epithelial monolayer in the presence and absence of chylomicron lipid-forming micelles.
Fluorescently labeled peptides according to SEQ ID NOS. 1 and 3 were synthesized. The peptide according to SEQ ID NO. […] The peptide according to SEQ ID NO. […] Therefore, the peptide according to SEQ ID NO. 2 aggregate may be viewed as a small nanoparticle displaying some peptides according to SEQ ID NO. 2 in correct orientation (i.e., on the surface not buried inside the nanoparticle). Even with this imperfect display, some increase in chylomicron lipid-dependent translocation across Caco-2 monolayers is still noticeable over a scrambled peptide according to SEQ ID NO. 1 (12C1) (FIG. 2). FITC-12 was 4.6-fold more efficiently transported than the sequence-scrambled control (FIG. 2).

Square brackets hold non-standard residues; d marks the D form. Ends that are not written are not given here. Peptide text beside a SMILES is read from it. Nle = CCCC[C@H](N)C(=O)O

Take `Cc1cc(C2CCCCC2)n(O)c(=O)c1` [Ciclopirox]: the LogP in data set [1] is 2.2.

For the molecule `CCCC[C@H](NC(=O)[C@H](CC(=O)O)NC(=O)[C@@H](NC(=O)[C@@H]1CCCN1C(=O)[C@H](Cc1c[nH]c2ccccc12)NC(=O)[C@H](CCCCN)NC(=O)[C@@H](N)[C@@H](C)O)C(C)C)C(=O)N[C@@H](CO)C(=O)N1CCC[C@H]1C(=O)N[C@@H](CC(N)=O)C(=O)N[C@H](C(=O)N[C@@H](CO)C(=O)O)C(C)C` [SEQ ID. NO. 6, TKWPVDN/eSPNVS] (H-TKWPVD[Nle]SPNVS-OH; N-terminus and C-terminus assumed), the “solubility in comparison with SEQ ID. NO. 1” value in data set [2] is recorded as “better solubility”.

On to `C[C@@H]1CCO[C@H]2Cn3cc(C(=O)NCc4ccc(F)cc4F)c(=O)c(O)c3C(=O)N12` [Dolutegravir], for which the LogP in data set [1] is reported as 1.0.

On to “FITC-12: fluorescently (FITC) labeled peptide #12 (SEQ ID NO. 2) (QDDVQTWQRQPK; also: FITC label, position not given here)”, for which, in data set [3], the “transport efficiency relative to sequence-scrambled control (12C1)” value worked out at 4.6 fold.

Regarding `CC(C)CN(C[C@@H](O)[C@H](Cc1ccccc1)NC(=O)O[C@H]1CO[C@H]2OCC[C@H]21)S(=O)(=O)c1ccc(N)cc1` [Darunavir], in data set [1], the LogP was 1.8.
